According to patent US9309231B2, “Bridged ring compounds as hepatitis C virus (HCV) inhibitors and pharmaceutical applications thereof” (SUNSHINE LAKE PHARMA CO., LTD, priority 2012, dated 2016):

Tests used:
HCV GT1a replicon cells = experiment: HCV replicon assay, GT1a replicon cells; format: cell-based; details: Hepatitis C virus, 72 hours incubation, luciferase reporter or NEO gene qPCR readout, read-out: EC50 against HCV 1a genotype
Method: (§1) An HCV Replicon assay was utilized in the present disclosure, and was prepared, developed and validated as described in Science, 1999, 285 (5424), 110-3 and J. Virol., 2003, 77 (5), 3007-19.
(§2) HCV GT1a, GT1b and GT2a replicon cells were used to test the currently described compound series as well as wild-type cells HCV 1b and resistant cells Y^93H, L31F, P32L and I302V. GT1a and CT1b are HCV Replicon System which is transfected HCV 1a, 1b genotype respectively.
(§3) 1. Testing EC50 of the Compounds by Luciferase Assay
(§4) The GT1b cells and GT1a cells were seeded into 96-well plates (8,000 cells in 125 μl/well) respectively; each compound was diluted to desired concentration using 5-fold serial dilutions protocol, 10 dose in duplicate, and added to wells with POD™ 810 Plate Assembler. The final concentration of DMSO was 0.5%; the plates were incubated in a CO2 incubator for 72 hours; after that, 40 μl of Luciferase assay substrate (Promega Bright-Glo) was added to each well, and detected by a chemiluminescence detection system (Topcount Microplate Scintillation and Luminescence Counter) 5 minutes later; data analysis.
(§5) 2. Testing EC50 of the Compounds by Detecting Antibiotic G418 Resistance Gene NEO Gene
(§6) The GT1b cells and GT1a cells were seeded into 96-well plates (8,000 cells in 125 μl/well) respectively; each compound was diluted to desired concentration using 5-fold serial dilutions protocol, 10 dose in duplicate, and added to wells with POD™ 810 Plate Assembler., the final concentration of DMSO was 0.5%; the cells were incubated in a CO2 incubator for 72 hours; quantitative PCR. • Sample preparation: the supernatant was removed, 100 μl of FCW buffer solution was added to each well, washed carefully and discarded the solution; 50 μl of lysate FCP was added to each well, the cells was lysed as PCR template and diluted with DEPC water. • Quantitative PCR: preparation of reaction mixture according to PCR system; the reaction mixture was dispensed into a 384-well PCR reaction plate (specially for quantitative); and a standard template which was diluted in proportion was distributed into the plate; and the sample template was distributed into the plate; then the 384-well plate was sealed with closure plate membrane; the […] PCR machine was operated by procedures; data analysis.
(§7) 3. Data Processing: The EC50 Values of Compounds were Analyzed by GraphPad Prism Software.

HCV GT1b replicon cells = experiment: HCV replicon assay, GT1b replicon cells; format: cell-based; details: Hepatitis C virus, 72 hours incubation, luciferase reporter or NEO gene qPCR readout, read-out: EC50 against HCV 1b genotype
Method: as §1, §2, §3, §4, §5, §6, §7

SMILES | EC50 (HCV GT1a replicon cells) | EC50 (HCV GT1b replicon cells)
COC(=O)N[C@H](C(=O)N1CCC[C@H]1C(=O)Nc1ccc(-c2ccc(-c3ccc(-c4cnc([C@@H]5CCCN5C(=O)[C@@H](NC(=O)OC)C(C)C)[nH]4)cc3)c3c2C2CCC3C2)cc1)C(C)C (stereo partly shown) [Example 49] | 855 pM | 83 pM
COC(=O)N[C@H](C(=O)N1CCC[C@H]1c1nc2ccc(-c3ccc(-c4ccc(-c5cnc([C@@H]6C7CCC(C7)N6C(=O)[C@@H](NC(=O)OC)C(C)C)[nH]5)cc4)c4c3C3CCC4C3)cc2[nH]1)C(C)C (stereo partly shown) [Example 1] | 29 pM | 8 pM
[2H]C([2H])([2H])C([2H])(C([2H])([2H])[2H])[C@]([2H])(NC(=O)OC)C(=O)N1CCC[C@H]1c1ncc(-c2ccc(-c3ccc(-c4cnc([C@@H]5CCCN5C(=O)[C@@]([2H])(NC(=O)OC)C([2H])(C([2H])([2H])[2H])C([2H])([2H])[2H])[nH]4)c4c3C3CCC4C3)c(F)c2)[nH]1 (stereo partly shown) [Example 77] | 206 pM | 9 pM
COC(=O)N[C@H](C(=O)N1CCC[C@H]1c1ncc(-c2ccc(-c3nnc(-c4ccc5[nH]c([C@@H]6CCCN6C(=O)[C@@H](NC(=O)OC)C(C)C)nc5c4)c4c3C3CCC4C3)cc2)[nH]1)C(C)C (stereo partly shown) [Example 12] | 658 pM | 373 pM
COC(=O)N[C@H](C(=O)N1C2CC2C[C@H]1c1ncc(-c2ccc(-c3ccc(-c4ccc(-c5cnc([C@@H]6NC7CC7N6C(=O)[C@@H](NC(=O)OC)C(C)C)[nH]5)cc4)c4c3C3CCC4C3)cc2)[nH]1)C(C)C (stereo partly shown) [Example 45] | 3070 pM | 113 pM
COC(=O)N[C@H](C(=O)N1C[C@H](C)C[C@H]1c1ncc(-c2ccc(-c3ccc(-c4cnc([C@@H]5C[C@H](C)CN5C(=O)[C@@H](NC(=O)OC)C(C)C)[nH]4)c4c3C3CCC4N3C)cc2)[nH]1)C(C)C (stereo partly shown) [Example 33] | 38 pM | 9 pM
COC(=O)N[C@H](C(=O)N1CCCC1c1ncc(-c2ccc(-c3ccc(-c4cnc([C@@H]5CC6(CN5C(=O)[C@@H](NC(=O)OC)C(C)C)OCCO6)[nH]4)cc3)c3c2C2CCC3CC2)[nH]1)C(C)C (stereo partly shown) [Example 61] | 88 pM | 11 pM
COC(=O)N[C@H](C(=O)N1CCC[C@H]1c1ncc(-c2ccc(-c3ccc(-c4ccc5nc([C@@H]6CCCN6C(=O)[C@@H](NC(=O)OC)C(C)C)[nH]c5c4)cc3)c3c2C2CCC3C2)[nH]1)C(C)C (stereo partly shown) [Example 47] | 53 pM | 13 pM
COC(=O)N[C@H](C(=O)N1CCC[C@H]1c1nc2cc(-c3ccc(-c4ccc(-c5cnc([C@H]6CCCN6C(=O)[C@@H](NC(=O)OC)C(C)C)[nH]5)cc4)c4c3C3CCC4C3)ccc2[nH]1)c1ccccc1 (stereo partly shown) [Example 8] | 33 pM | 19 pM
[2H]C([2H])([2H])C([2H])(C([2H])([2H])[2H])[C@]([2H])(NC(=O)OC)C(=O)N1CCC[C@H]1c1ncc(-c2ccc(-c3nnc(-c4ccc5[nH]c([C@@H]6CCCN6C(=O)[C@@]([2H])(NC(=O)OC)C([2H])(C([2H])([2H])[2H])C([2H])([2H])[2H])nc5c4)c4c3C3CCC4CC3)cc2)[nH]1 [Example 78] | 45 pM | 7 pM
COC(=O)N[C@H](C(=O)N1CCC[C@H]1c1ncc(-c2ccc(-c3ccc(-c4cnc([C@@H]5CCCN5C(=O)[C@@H](NC(=O)OC)C(C)C)[nH]4)c4c3C3CCC4C3)c3c2CCC3)[nH]1)C(C)C (stereo partly shown) [Example 67] | 953 pM | 53 pM
COC(=O)N[C@H](C(=O)N1CCC[C@H]1c1ncc(-c2ccc(-c3ccc(-c4cnc([C@@H]5CCCN5C(=O)[C@@H](NC(=O)OC)C(C)C)[nH]4)c4c3C3CCC4C3)c(F)c2)[nH]1)C(C)C (stereo partly shown) [Example 4] | 497 pM | 7 pM
CCC(C)[C@H](NC(=O)OC)C(=O)N1CCC[C@H]1c1nc2cc(-c3ccc(-c4ccc(-c5cnc([C@@H]6CCCN6C(=O)[C@@H](NC(=O)OC)C(C)C)[nH]5)cc4)c4c3C3CCC4C3)ccc2[nH]1 (stereo partly shown) [Example 9] | 104 pM | 9 pM
COC(=O)N[C@H](C(=O)N1CCC[C@H]1c1ncc(-c2ccc(-c3ccc(-c4ccc(-c5cnc([C@@H]6CCCN6C(=O)[C@@H](NC(=O)OC)C(C)C)[nH]5)cc4)c4c3C3CCC4O3)cc2)[nH]1)C(C)C [Example 63] | 2250 pM | 815 pM
COC(=O)N[C@H](C(=O)N1CCC[C@H]1c1nc2ccc(-c3ccc(-c4ccc(-c5cnc([C@@H]6CC7CC7N6C(=O)[C@@H](NC(=O)OC)C(C)C)[nH]5)cc4)c4c3C3CCC4C3)cc2[nH]1)C(C)C (stereo partly shown) [Example 3] | 53 pM | 13 pM
COC(=O)N[C@H](C(=O)N1CCC[C@H]1c1ncc(-c2ccc3cc(-c4ccc(-c5cnc([C@@H]6CCCN6C(=O)[C@@H](NC(=O)OC)C(C)C)[nH]5)c5c4C4CCC5C4)ccc3c2)[nH]1)C(C)C (stereo partly shown) [Example 48] | 43 pM | 29 pM
COC(=O)N[C@H](C(=O)N1CCC[C@H]1c1ncc(-c2ccc(-c3ccc(-c4cnc([C@@H]5CCCN5C(=O)[C@@H](NC(=O)OC)C5CCCCC5)[nH]4)c4c3C3CCC4C3)cc2)[nH]1)C1CCCCC1 (stereo partly shown) [Example 10] | 374 pM | 13 pM
COC(=O)N[C@H](C(=O)N1CCCC1c1ncc(C#Cc2ccc(C#Cc3cnc([C@@H]4CCCN4C(=O)[C@@H](NC(=O)OC)C(C)C)[nH]3)c3c2C2CCC3C2)[nH]1)C(C)C (stereo partly shown) [Example 19] | 87 pM | 26 pM
COC(=O)N[C@H](C(=O)N1CC(F)(F)CC1c1ncc(-c2ccc(-c3ccc(-c4cnc([C@@H]5CC(F)(F)CN5C(=O)[C@@H](NC(=O)OC)C(C)C)[nH]4)cc3)c3c2C2CCC3N2C)[nH]1)C(C)C (stereo partly shown) [Example 31] | 77 pM | 38 pM
COC(=O)N[C@H](C(=O)N1CCC[C@H]1c1ncc(-c2ccc(-c3ccc(-c4ccc5nc([C@@H]6CCCN6C(=O)[C@@H](NC(=O)OC)C(C)C)[nH]c5c4)c4c3C3CCC4C3)cc2)[nH]1)C(C)C (stereo partly shown) [Example 17] | 767 pM | 7 pM
COC(=O)N[C@H](C(=O)N1CCC[C@H]1c1nc2ccc(-c3ccc(-c4ccc5nc([C@@H]6CCCN6C(=O)[C@@H](NC(=O)OC)C(C)C)[nH]c5c4)c4c3C3CCC4N3C)cc2[nH]1)C(C)C [Example 25] | 83 pM | 32 pM
COC(=O)N[C@H](C(=O)N1CCC[C@H]1c1ncc(-c2ccc(-c3ccc(-c4ccc5nc([C@@H]6CCCN6C(=O)[C@@H](NC(=O)OC)C(C)C)[nH]c5c4)c4c3C3CCC4N3C)nc2)[nH]1)C(C)C (stereo partly shown) [Example 34] | 54 pM | 6 pM
COC(=O)N[C@H](C(=O)N1CCC[C@H]1c1ncc(-c2ccc(-c3ccc(-c4cnc([C@@H]5CCCN5C(=O)[C@@H](NC(=O)OC)C(C)C)[nH]4)c4c3C3CCC4C3)cc2)[nH]1)C(C)C (stereo partly shown) [Example 18] | 138 pM | 14 pM
COC(=O)N[C@H](C(=O)N1CCC[C@H]1c1ncc(-c2ccc(-c3ccc(-c4ccc5nc([C@@H]6CCCN6C(=O)[C@@H](NC(=O)OC)C(C)C)[nH]c5c4)c4c3C3CCC4CC3)cc2)[nH]1)C(C)C [Example 21] | 93 pM | 13 pM
CC[C@H](C)[C@H](NC(=O)OC)C(=O)N1CCC[C@H]1c1nc2ccc(-c3ccc(-c4ccc(-c5cnc([C@@H]6CCCN6C(=O)[C@@H](NC(=O)OC)C(C)C)[nH]5)cc4)c4c3C3CCC4N3C)cc2[nH]1 (stereo partly shown) [Example 28] | 63 pM | 15 pM
COC(=O)N[C@H](C(=O)N1CCC[C@H]1c1ncc(C#Cc2ccc(C#Cc3cnc([C@@H]4CCCN4C(=O)[C@@H](NC(=O)OC)C(C)C)[nH]3)c3c2C2CCC3N2C)[nH]1)C(C)C [Example 24] | 453 pM | 96 pM
